Where two headings read alike, the source gives them in different places.
Tests used:
[1] = biological target: T1, MMP-1 (Homo sapiens, UniProt P03956); assay: MMP-1 inhibition (thiopeptide or fluorescent peptide substrate); type: biochemical; conditions: for IC50: read-out: MMP1 IC50
T1 sequence (P03956 100-469): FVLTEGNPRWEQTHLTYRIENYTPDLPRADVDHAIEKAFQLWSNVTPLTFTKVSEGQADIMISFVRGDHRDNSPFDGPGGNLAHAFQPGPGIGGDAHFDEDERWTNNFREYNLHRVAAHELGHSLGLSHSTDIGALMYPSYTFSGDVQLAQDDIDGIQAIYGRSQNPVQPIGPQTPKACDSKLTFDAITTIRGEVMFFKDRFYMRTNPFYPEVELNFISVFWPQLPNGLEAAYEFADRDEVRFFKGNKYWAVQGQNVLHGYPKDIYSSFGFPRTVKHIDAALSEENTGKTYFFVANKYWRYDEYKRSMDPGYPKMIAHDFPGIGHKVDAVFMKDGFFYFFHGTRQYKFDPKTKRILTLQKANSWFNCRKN

[2] = tested on: THP-1 cells; assay: Human monocytic THP-1 cell differentiation assay for soluble proteins (THP-1 soluble protein assay); type: cell-based; conditions: LPS-stimulated THP-1 cells, soluble protein not given
Text: Mitogenic stimulation of THP-1 cells cause differentiation into macrophage like cells with concomitant secretion of tumor necrosis factor (TNF-α) and TNF receptor (TNF-R p75/80 and TNF-R p55160) and Interleukin-8 (IL-8), among other proteins. In addition, non-stimulated THP-1 cells shed both the p75/80 and the p55/60 receptors over time. The release of membrane bound TNF-α and possibly TNF-R p75/80 and TNF-R p55/60, but not IL-8, is mediated by an enzyme called TNF-α converting enzyme or TACE.
THP-1 cells (from ATCC) are a human monocytic cell line which were obtained from the peripheral blood of a person with acute monocytic leukemia. They can be grown in culture and differentiated into macrophage like cells by stimulation with mitogens.
Each vial of cells are cultured for about two weeks prior to being used for an assay and then are used for only 4 to 6 weeks to screen compounds.
Cell exposure to DMSO was limited to 0.1% final concentration. […] Compounds can be evaluated for their effect on basal (non-stimulated) shedding of the receptors by replacing the LPS with […] of THP-1 media.
Plates are placed into an incubator set at 5% CO2 and at 37° C. After 4 hours of incubation, […] of tissue culture supernatant (TCS) is removed for use in an TNF-α ELISA. Following 24 hours of incubation, […] of TCS is removed and used for analysis in TNF-R p75/80, TNF-R p55160 and IL-8 ELISAs.
In addition, at the 24 hours timepoint, and the cells for each treatment group are collected by resuspension in 500 μl/well of THP-1 media and transferred into a FACS tube. […] The samples are run on a Becton Dickinson FaxCaliber FLOW cytometry machine and the amount of dye taken up by each cell is measured in the high red wavelength (FL3). Only cells with compromised membranes (dead or dying) can take up PI. The percent of live cells is calculated by the number of cells not stained with PI, divided by the total number of cells in the sample. The viability values calculated for the drug treated groups were compared to the viability value calculated for the vehicle treated mitogen stimulated group (“vehicle positive control”) to determine the “percent change from control”. This “percent change from control” value is an indicator of drug toxicity.
The quantity of soluble TNF-α, TNF-R p75/80 and TNF-R p55160 and IL-8 in the TCS of the THP-1 cell cultures are obtained with commercially available ELISAs from R&D Systems, by extrapolation from a standard curve generated with kit standards. The number of cells that either take up or exclude PI are measured by the FLOW cytometry machine and visualized by histograms using commercially available Cytologic software for each treatment group including all controls.
Biological variability in the magnitude of the response of THP-1 cell cultures requires that experiments be compared on the basis of percent change from “vehicle positive control” for each drug concentration. Percent change in each soluble protein evaluated from the “vehicle positive control” was calculated for each compound concentration with the following formula: [formula]
For the soluble protein (TNF-α, p75/80, p55/60, IL-8) studies under stimulated conditions, the mean pg/ml of duplicate wells were determined and the results expressed as percent change from “vehicle positive control”. For the soluble protein (p75/80 and p55/60 receptors) studies under non-stimulated conditions, the mean pg/ml of duplicate wells were determined and the results expressed as percent change from “vehicle positive control” utilizing the following formula: [formula]
IC50 values for each compound are calculated by non-linear regression analysis using customized software utilizing the JUMP statistical package.
For the cell viability studies, the viabilities (PI exclusion) of pooled duplicate wells were determined and the results expressed as % change from “vehicle positive control”.

[3] = biological target: MMP-9 (Homo sapiens, UniProt P14780); assay: MMP-9 inhibition (thiopeptide or fluorescent peptide substrate); type: biochemical; conditions: for IC50: read-out: MMP9 IC50
MMP-9, sequence (P14780 94-707): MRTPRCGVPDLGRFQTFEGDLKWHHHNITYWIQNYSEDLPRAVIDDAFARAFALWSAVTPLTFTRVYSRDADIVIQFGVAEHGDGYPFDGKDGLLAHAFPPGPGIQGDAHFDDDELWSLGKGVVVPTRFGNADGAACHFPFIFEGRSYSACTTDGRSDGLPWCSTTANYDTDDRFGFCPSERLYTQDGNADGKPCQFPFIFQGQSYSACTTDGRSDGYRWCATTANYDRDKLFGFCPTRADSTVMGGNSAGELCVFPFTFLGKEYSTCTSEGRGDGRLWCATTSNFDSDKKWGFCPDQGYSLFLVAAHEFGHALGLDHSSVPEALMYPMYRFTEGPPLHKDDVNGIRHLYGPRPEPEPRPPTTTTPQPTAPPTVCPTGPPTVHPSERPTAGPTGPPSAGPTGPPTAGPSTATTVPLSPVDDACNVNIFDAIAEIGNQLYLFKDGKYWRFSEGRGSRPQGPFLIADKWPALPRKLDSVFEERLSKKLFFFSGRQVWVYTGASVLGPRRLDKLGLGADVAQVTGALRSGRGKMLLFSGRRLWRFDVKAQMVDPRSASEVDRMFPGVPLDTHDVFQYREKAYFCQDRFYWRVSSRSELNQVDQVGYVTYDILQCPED

| IC50 [1] [nM] | IC50 [3] [µM] | IC50 ([1]; cells that print nM) [nM] | MMP1 % inhibition ([1]; printed in the MMP1 IC50 column, concentration not given) [%] | MMP9 % inhibition ([3]; printed in the MMP9 IC50 column, concentration not given) [%] | SMILES | inhibition at 3 µM [2] [%] |
| --- | --- | --- | --- | --- | --- | --- |
| > 10000 | 1.81 |  |  |  | CC#CCOc1ccc(S(=O)(=O)C2(C(=O)NO)CCN(C(C)C)CC2)cc1 [Example 22, 4-{[4-(2-butynyloxy)phenyl]sulfonyl}-N-hydroxy-1-isopropyl-4-piperidine carboxamide] | 5 |
|  | 0.16 | 3210 |  |  | CC#CCOc1ccc(S(=O)(=O)C2(C(=O)NO)CCN(Cc3cccnc3)CC2)cc1 [Example 23, 4-{[4-(2-butynyloxy)phenyl]sulfonyl}-N-hydroxy-1-(3-pyridinylmethyl)-4-piperidine carboxamide] | 62 |
|  | 2.08 | 5670 |  |  | CC#CCOc1ccc(S(=O)(=O)C2(C(=O)NO)CCCN(CC)C2)cc1 (stereo not drawn) [Example 24, 3-{[4-(2-Butynyloxy)phenyl]sulfonyl}-1-ethyl-N-hydroxy-3-piperidinecarboxamide] | 41 |
| > 10000 | 2.74 |  |  |  | CC#CCOc1ccc(S(=O)(=O)C2(C(=O)NO)CCCN(Cc3ccc(Cl)cc3)C2)cc1 (stereo not drawn) [Example 25, 3-{[4-(2-butynyloxy)phenyl]sulfonyl}-1-(4-chlorobenzyl)-N-hydroxy-3-piperidinecarboxamide] | 3 |
|  | 0.0251 | 1990 |  |  | CC#CCOc1ccc(S(=O)(=O)C2(C(=O)NO)CCN(Cc3ccc(OCCN4CCCCC4)cc3)CC2)cc1 [Example 26, 4-{[4-(2-Butynyloxy)phenyl]sulfonyl}-1-[4-(2-piperidin-1-yl-ethoxy)-benzyl]-piperidine-4-carboxylic acid hydroxyamide] | 63 |
| > 10000 | 1.54 |  |  |  | CC#CCOc1ccc(S(=O)(=O)C2(C(=O)NO)CCN(C(CC)CC)CC2)cc1 [Example 27, 4-{[4-(2-Butynyloxy)phenyl]sulfonyl}-1-(3-pentanyl)-piperidine-4-carboxylic acid hydroxyamide] | 13 |
|  | 0.0154 | 106 |  |  | C#CCOc1ccc(S(=O)(=O)C2(C(=O)NO)CCN(Cc3ccc(OC)cc3)CC2)cc1 [Example 28, 1-(4-Methoxy-benzyl)-4-(4-prop-2-ynyloxy-benzenesulfonyl)-piperidine-4-carboxylic acid hydroxyamide] | 13 |
|  | 0.016 | 91 |  |  | C#CCOc1ccc(S(=O)(=O)C2(C(=O)NO)CCN(Cc3ccc(Cl)cc3)CC2)cc1 [Example 29, 1-(4-Chlorobenzyl)-4-(4-prop-2-ynyloxy-benzenesulfonyl)-piperidine-4-carboxylic acid hydroxyamide] | 13 |
| > 10000 | 5.9 |  |  |  | CC#CCOc1ccc(SCC2(C(=O)NO)CCN(C(=O)OC(C)(C)C)CC2)cc1 [Example 30, tert-butyl-4-({[4-(2-butynyloxy)phenyl]sulfanyl}methyl)-4-[(hydroxyamino)-carbonyl]-1-piperidinecarboxylate] | 0 |
| > 10000 | > 10 |  |  |  | CC#CCOc1ccc(SCC2(C(=O)NO)CCNCC2)cc1 [Example 31, 4-({[4-(But-2-ynyloxy)phenyl]thio}methyl)-N-hydroxypiperidine-4-carboxamide] | 8 |
| > 10000 | > 10 |  |  |  | CC#CCOc1ccc([S+]([O-])CC2(C(=O)NO)CCN(C(=O)OC(C)(C)C)CC2)cc1 (stereo not drawn) [Example 32, tert-Butyl-4-({[4-(2-butynyloxy)phenyl]sulfinyl}methyl)-4-[(hydroxyamino)-carbonyl]-1-piperidinecarboxylate] | 0 |
| > 10000 | > 5 |  |  |  | CC#CCOc1ccc([S+]([O-])CC2(C(=O)NO)CCNCC2)cc1 (stereo not drawn) [Example 33, 4-[[[4-(2-Butynyloxy)phenyl]sulfinyl]methyl]-N-hydroxy-4-piperidinecarboxamide] | 8 |
| ~10000 | 1.39 |  |  |  | CC#CCOc1ccc(S(=O)(=O)CC2(C(=O)NO)CCN(C(=O)OC(C)(C)C)CC2)cc1 [Example 34, tert-Butyl-4-({[4-(but-2-ynyloxy)phenyl]sulfonyl}methyl)-4-[(hydroxyamino)-carbonyl]piperidine-1-carboxylate] | 68 |
| 3900 | 2.83 |  |  |  | CC#CCOc1ccc(S(=O)(=O)CC2(C(=O)NO)CCN(C(C)=O)CC2)cc1 [Example 36, 1-Acetyl-4-[[[4-(2-butynyloxy)phenyl]sulfonyl]methyl]-N-hydroxy-4-piperidinecarboxamide] | 58 |
| ~10000 | 1.44 |  |  |  | CC#CCOc1ccc(S(=O)(=O)CC2(C(=O)NO)CCN(C(=O)NC(C)(C)C)CC2)cc1 [Example 38] | 53 |
| 707 | 0.425 |  |  |  | CC#CCOc1ccc(S(=O)(=O)CC2(C(=O)NO)CCN(C(=O)OCc3ccccc3)CC2)cc1 [Example 40, Benzyl 4-({[4-(2-butynyloxy)phenyl]sulfonyl}methyl)-4-[(hydroxyamino)-carbonyl]-1-piperidinecarboxylate] | 41 |
| 2680 | 1.12 |  |  |  | CC#CCOc1ccc(S(=O)(=O)CC2(C(=O)NO)CCN(Cc3ccccc3)CC2)cc1 [Example 41] | 60 |
| ~10000 | > 10 |  |  |  | CC#CCOc1ccc(S(=O)(=O)CC2(C(=O)NO)CCN(C(=O)C3(C)COC(C)(C)OC3)CC2)cc1 [Example 42, 4-({[4-(2-Butynyloxy)phenyl]sulfonyl}methyl)-N-hydroxy-1-[(2,2,5-trimethyl-1,3-dioxan-5-yl)carbonyl]-4-piperidinecarboxamide] | 78 |
| ~10000 | > 10 |  |  |  | CC#CCOc1ccc(S(=O)(=O)CC2(C(=O)NO)CCN(C(=O)C(C)(CO)CO)CC2)cc1 [Example 43, 4-({[4-(2-Butynyloxy)phenyl]sulfonyl}methyl)-N-hydroxy-1-[3-hydroxy-2-(hydroxymethyl)-2-methylpropanoyl]-4-piperidinecarboxamide] | 66 |
|  |  |  | 35 | 50.6 | CC#CCOc1ccc(S(=O)(=O)CC2(C(=O)NO)CCN(C(=N)N)CC2)cc1 [Example 44] | 49 |
| 3800 | 3.58 |  |  |  | CC#CCOc1ccc(S(=O)(=O)CC2(C(=O)NO)CCN(CC#CCO)CC2)cc1 [Example 45] | 48 |
| 4080 | 0.56 |  |  |  | CC#CCOc1ccc(S(=O)(=O)C2(C(=O)NO)CCN(C(C)=O)CC2)cc1 [Example 64, 1-Acetyl-4-(4-but-2-ynyloxybenzenesulfonyl)piperidine-4-carboxylic acid hydroxamide] | 30 |
| 3530 | 0.448 |  |  |  | CC#CCOc1ccc(S(=O)(=O)C2(C(=O)NO)CCN(C(=O)c3ccccc3)CC2)cc1 [Example 65, 1-Benzoyl-4-(4-but-2-ynyloxybenzenesulfonyl)piperidine-4-carboxylic acid hydroxamide] | 3 |

— patent publication US6753337B2, “Alkynyl containing hydroxamic acid compounds as matrix metalloproteinase/tace inhibitors” (Wyeth Holdings Corporation, priority 1999, dated 2004)
